Measurements from ChEMBL document CHEMBL5550211 (J Med Chem, 2024).

How the values were obtained:
[1] = target: T1, Serine/threonine-protein kinase B-raf (Homo sapiens, UniProt P15056, V600E); assay: Inhibition of 6-His tagged BRAF V600E mutant (445 to 723 residues) (unknown origin)
[2] = Substrate activity at BCRP in LLC-PK1 cells assessed as efflux ratio of apparent permeability from basolateral to apical side over apical to basolateral side; assay type: ADME, cell-based, Sus scrofa; details: pig
[3] = Dissociation constant, pKa of the compound; assay type: physicochemical
[4] = target: T1, Serine/threonine-protein kinase B-raf; assay: Inhibition of BRAF V600E mutant in human A-375 cells assessed as reduction in ERK phosphorylation; assay type: cell-based
[5] = Substrate activity at P-gp in LLC-PK1 cells assessed as efflux ratio of apparent permeability from basolateral to apical side over apical to basolateral side; assay type: ADME, cell-based, Sus scrofa; details: pig
[6] = Apparent permeability across apical to basolateral side in LLC-PK1 cells; assay type: ADME, cell-based, Sus scrofa; details: pig

T1 sequence (P15056 2-766 V600E limits assumed): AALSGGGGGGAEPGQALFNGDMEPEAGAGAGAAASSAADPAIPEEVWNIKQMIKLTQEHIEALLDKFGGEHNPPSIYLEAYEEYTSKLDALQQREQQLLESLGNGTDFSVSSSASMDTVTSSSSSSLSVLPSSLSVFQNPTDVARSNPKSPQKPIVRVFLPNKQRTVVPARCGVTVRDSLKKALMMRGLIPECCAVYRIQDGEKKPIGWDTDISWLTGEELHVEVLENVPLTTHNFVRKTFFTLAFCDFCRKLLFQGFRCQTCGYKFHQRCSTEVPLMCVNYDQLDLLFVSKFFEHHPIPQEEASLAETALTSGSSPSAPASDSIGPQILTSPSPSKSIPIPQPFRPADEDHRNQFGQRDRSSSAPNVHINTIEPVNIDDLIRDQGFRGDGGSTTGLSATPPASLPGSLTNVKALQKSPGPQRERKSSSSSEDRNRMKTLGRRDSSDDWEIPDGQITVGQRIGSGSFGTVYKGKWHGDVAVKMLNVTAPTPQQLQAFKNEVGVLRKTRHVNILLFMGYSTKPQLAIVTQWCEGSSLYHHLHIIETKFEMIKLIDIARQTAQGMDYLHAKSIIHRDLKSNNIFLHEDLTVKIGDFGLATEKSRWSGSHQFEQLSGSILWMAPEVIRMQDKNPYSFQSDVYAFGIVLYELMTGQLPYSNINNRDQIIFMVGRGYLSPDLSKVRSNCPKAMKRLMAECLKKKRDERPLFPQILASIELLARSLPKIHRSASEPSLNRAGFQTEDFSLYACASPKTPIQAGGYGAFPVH

SMILES	IC50 [1]	Ratio [2]	pKa [3]	IC50 [4]	Ratio [5]	Papp A→B [6]
CCCS(=O)(=O)Nc1ccc(F)c(Nc2ccc3ncn(C)c(=O)c3c2C)c1Cl	0.0145 µM	1.2	7.88	0.0355 µM	1.3	28 ×10⁻⁶ cm/s
CCCS(=O)(=O)Nc1ccc(F)c(Nc2ccc3ncn(C4CC4)c(=O)c3c2C)c1Cl	0.0117 µM	1.6	–	0.0615 µM	1.6	25 ×10⁻⁶ cm/s
CCCS(=O)(=O)Nc1ccc(F)c(C(=O)c2c[nH]c3ncc(-c4ccc(Cl)cc4)cc23)c1F [VEMURAFENIB]	–	15.2	–	–	21.7	3 ×10⁻⁶ cm/s
CCCS(=O)(=O)Nc1ccc(F)c(Oc2ccc3ncn(C)c(=O)c3c2)c1F	–	–	–	–	–	29 ×10⁻⁶ cm/s
Cc1c(Nc2c(F)ccc(NS(=O)(=O)CC3CC3)c2Cl)ccc2ncn(C)c(=O)c12	0.0461 µM	1.1	–	0.0936 µM	1.5	29 ×10⁻⁶ cm/s
CCC(C)S(=O)(=O)Nc1ccc(F)c(Nc2ccc3ncn(C)c(=O)c3c2C)c1Cl (stereo not given)	0.0774 µM	0.8	–	0.113 µM	1.2	27 ×10⁻⁶ cm/s
CCCS(=O)(=O)Nc1ccc(F)c(Nc2ccc3ncn(C)c(=O)c3c2)c1Cl	0.0138 µM	6	–	0.0273 µM	4.1	39 ×10⁻⁶ cm/s
CCCS(=O)(=O)Nc1ccc(F)c(N(C)c2ccc3ncn(C)c(=O)c3c2)c1F	0.0692 µM	2.6	–	0.0737 µM	3.2	41 ×10⁻⁶ cm/s
CCCS(=O)(=O)Nc1ccc(Cl)c(Nc2ccc3ncn(C)c(=O)c3c2)c1F	0.0603 µM	18.9	–	0.142 µM	7.1	48 ×10⁻⁶ cm/s
CCCS(=O)(=O)Nc1ccc(F)c(Nc2ccc3ncn(C)c(=O)c3c2OC)c1Cl	–	–	–	–	–	22 ×10⁻⁶ cm/s
CCS(=O)(=O)Nc1ccc(F)c(Nc2ccc3ncn(C)c(=O)c3c2C)c1Cl	0.182 µM	1.3	–	0.169 µM	1.8	36 ×10⁻⁶ cm/s
COC(=O)N[C@@H](C)CNc1nccc(-c2cn(C(C)C)nc2-c2cc(Cl)cc(NS(C)(=O)=O)c2F)n1 [ENCORAFENIB]	–	–	–	–	26.3	11 ×10⁻⁶ cm/s
CCCS(=O)(=O)Nc1ccc(F)c(Nc2ccc3ncn(CC)c(=O)c3c2C)c1Cl	0.00361 µM	0.9	–	0.027 µM	0.9	30 ×10⁻⁶ cm/s
CCCS(=O)(=O)Nc1ccc(F)c(N(CC)c2ccc3ncn(C)c(=O)c3c2)c1F	0.197 µM	1.5	–	0.197 µM	1.5	19 ×10⁻⁶ cm/s
CCCS(=O)(=O)Nc1ccc(F)c(Nc2ccc3ncn(C)c(=O)c3c2)c1F	0.088 µM	21.3	–	0.0691 µM	11.1	26 ×10⁻⁶ cm/s
CCCS(=O)(=O)Nc1ccc(F)c(Sc2ccc3ncn(C)c(=O)c3c2)c1F	–	–	–	–	–	19 ×10⁻⁶ cm/s
CC(C)(C)c1nc(-c2cccc(NS(=O)(=O)c3c(F)cccc3F)c2F)c(-c2ccnc(N)n2)s1 [DABRAFENIB]	–	11.7	–	–	10.1	29 ×10⁻⁶ cm/s
CCCS(=O)(=O)Nc1ccc(Cl)c(N(C)c2ccc3ncn(C)c(=O)c3c2)c1F	0.0284 µM	3.9	–	0.178 µM	4.1	37 ×10⁻⁶ cm/s
CCCS(=O)(=O)Nc1ccc(F)c(Nc2ccc3ncn(C)c(=O)c3c2Cl)c1Cl	–	–	–	–	–	24 ×10⁻⁶ cm/s
CCCS(=O)(=O)Nc1ccc(F)c(Nc2ccc3ncn(C(C)C)c(=O)c3c2C)c1Cl	0.02 µM	1.5	–	0.187 µM	1.4	20 ×10⁻⁶ cm/s
Cc1c(Nc2c(F)ccc(NS(=O)(=O)C3CC3)c2Cl)ccc2ncn(C)c(=O)c12	–	–	–	–	–	22 ×10⁻⁶ cm/s
CCCS(=O)(=O)Nc1ccc(F)c(Nc2ccc3ncn(CC4CC4)c(=O)c3c2C)c1Cl	0.0175 µM	1.6	–	0.285 µM	1.1	21 ×10⁻⁶ cm/s
CCCS(=O)(=O)Nc1ccc(F)c(N(C)c2ccc3ncn(C)c(=O)c3c2)c1Cl	0.0549 µM	1.3	–	0.177 µM	3.6	28 ×10⁻⁶ cm/s
CCCS(=O)(=O)Nc1ccc(F)c(Nc2ccc3ncn(C)c(=O)c3c2F)c1Cl	–	–	–	–	–	33 ×10⁻⁶ cm/s
Cc1c(Nc2c(F)ccc(NS(=O)(=O)CC(C)C)c2Cl)ccc2ncn(C)c(=O)c12	0.0508 µM	1.3	–	0.122 µM	1.6	27 ×10⁻⁶ cm/s
